Test results: ChEMBL document CHEMBL1201862, “PubChem BioAssay data set” (2004)
Activity calls are given as the source filed them.

Legend:
[1] = molecular target: T1, Histone-lysine N-methyltransferase NSD2 (Homo sapiens, UniProt O96028); format: biochemical
T1 sequence (O96028 whole entry): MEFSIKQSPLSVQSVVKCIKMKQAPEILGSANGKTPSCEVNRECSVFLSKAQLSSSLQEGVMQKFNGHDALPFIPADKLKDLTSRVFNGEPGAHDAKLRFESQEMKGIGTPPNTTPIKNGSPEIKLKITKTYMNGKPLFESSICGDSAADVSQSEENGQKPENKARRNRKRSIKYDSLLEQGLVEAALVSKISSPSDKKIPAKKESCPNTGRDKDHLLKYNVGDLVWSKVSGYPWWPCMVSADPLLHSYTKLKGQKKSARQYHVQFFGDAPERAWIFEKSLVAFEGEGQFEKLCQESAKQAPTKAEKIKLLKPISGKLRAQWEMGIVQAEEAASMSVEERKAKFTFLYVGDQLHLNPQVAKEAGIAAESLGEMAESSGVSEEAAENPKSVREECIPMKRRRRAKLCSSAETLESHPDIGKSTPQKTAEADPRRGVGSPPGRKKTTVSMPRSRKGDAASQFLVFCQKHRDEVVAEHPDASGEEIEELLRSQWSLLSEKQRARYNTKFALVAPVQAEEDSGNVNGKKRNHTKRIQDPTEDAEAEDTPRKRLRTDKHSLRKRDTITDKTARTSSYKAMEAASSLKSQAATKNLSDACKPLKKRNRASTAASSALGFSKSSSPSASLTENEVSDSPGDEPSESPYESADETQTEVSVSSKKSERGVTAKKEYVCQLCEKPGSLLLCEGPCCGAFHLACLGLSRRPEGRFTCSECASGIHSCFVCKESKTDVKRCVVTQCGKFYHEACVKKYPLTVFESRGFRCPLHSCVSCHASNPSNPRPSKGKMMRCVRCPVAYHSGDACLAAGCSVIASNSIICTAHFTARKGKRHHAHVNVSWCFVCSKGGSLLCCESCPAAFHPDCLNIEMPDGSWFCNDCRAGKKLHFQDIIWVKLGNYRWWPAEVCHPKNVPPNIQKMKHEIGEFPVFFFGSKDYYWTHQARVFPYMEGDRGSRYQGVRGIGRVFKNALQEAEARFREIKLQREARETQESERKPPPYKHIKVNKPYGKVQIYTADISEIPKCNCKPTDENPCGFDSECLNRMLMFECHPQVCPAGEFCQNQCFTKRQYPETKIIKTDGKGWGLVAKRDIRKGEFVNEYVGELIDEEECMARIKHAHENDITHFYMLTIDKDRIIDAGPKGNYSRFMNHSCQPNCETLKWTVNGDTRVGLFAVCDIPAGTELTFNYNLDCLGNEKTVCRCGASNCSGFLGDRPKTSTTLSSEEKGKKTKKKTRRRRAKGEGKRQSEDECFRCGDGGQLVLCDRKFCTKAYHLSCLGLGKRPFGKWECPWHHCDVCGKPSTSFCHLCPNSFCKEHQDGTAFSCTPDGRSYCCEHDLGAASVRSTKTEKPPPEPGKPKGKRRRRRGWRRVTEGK

[2] = molecular target: Nucleotide-binding oligomerization domain-containing protein 2 (Homo sapiens, UniProt Q9HC29); assay: inhibition of NOD2-driven NF-kB reporter – cell-based, luminescence, uHTS, HEK293 (AID 1566); format: functional
[3] = molecular target: T2, Sentrin-specific protease 8 (Homo sapiens, UniProt Q96LD8); format: functional;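 further: luminescence read-out of SENP8 inhibition, dose-response confirmation following an ultra-high-throughput screen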
T2 sequence (Q96LD8 whole entry): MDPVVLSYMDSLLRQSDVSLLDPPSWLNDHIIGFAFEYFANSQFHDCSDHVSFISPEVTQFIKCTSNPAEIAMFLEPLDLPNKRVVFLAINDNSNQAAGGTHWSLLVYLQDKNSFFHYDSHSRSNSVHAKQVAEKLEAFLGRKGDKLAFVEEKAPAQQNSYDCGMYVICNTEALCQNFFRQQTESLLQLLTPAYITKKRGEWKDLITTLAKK

HEK293 [4] = assay: NOD2 signaling inhibitors in MDP-stimulated cells, cell-based, uHTS, luminescence (AID 2001); format: functional; conditions: Homo sapiens
HEK293 [5] = assay: cells; format: functional, cell-based; conditions: Homo sapiens
[6] = tested on: Streptococcus sp. 'group A'; assay: Streptococcus pyogenes SK(-)GAS viability under kanamycin – luminescence, BacTiterGlo, confirmation, counter-screen for streptokinase expression inhibitor project, dose response (AID 1900); format: functional, organism-based
Mu-type opioid receptor = Mu-type opioid receptor (Homo sapiens, UniProt P35372); assay: Counterscreen for agonists of heterodimerization of the mu 1 (OPRM1) and delta 1 (OPRD1) opioid receptors: Luminescence-based cell-based high throughput dose response assay to identify agonists of OPRM1 homodimerization.; format: functional;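 further: U2OS cells expressing OPRM1 and beta-arrestin as split beta-galactosidase partners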
[7] = molecular target: T3, Sentrin-specific protease 7 (Homo sapiens, UniProt Q9BQF6); assay: inhibition of human SENP7 cleavage activity – biochemical, luminescence, SAR follow-up (AID 504497); format: functional
T3 sequence (Q9BQF6 whole entry): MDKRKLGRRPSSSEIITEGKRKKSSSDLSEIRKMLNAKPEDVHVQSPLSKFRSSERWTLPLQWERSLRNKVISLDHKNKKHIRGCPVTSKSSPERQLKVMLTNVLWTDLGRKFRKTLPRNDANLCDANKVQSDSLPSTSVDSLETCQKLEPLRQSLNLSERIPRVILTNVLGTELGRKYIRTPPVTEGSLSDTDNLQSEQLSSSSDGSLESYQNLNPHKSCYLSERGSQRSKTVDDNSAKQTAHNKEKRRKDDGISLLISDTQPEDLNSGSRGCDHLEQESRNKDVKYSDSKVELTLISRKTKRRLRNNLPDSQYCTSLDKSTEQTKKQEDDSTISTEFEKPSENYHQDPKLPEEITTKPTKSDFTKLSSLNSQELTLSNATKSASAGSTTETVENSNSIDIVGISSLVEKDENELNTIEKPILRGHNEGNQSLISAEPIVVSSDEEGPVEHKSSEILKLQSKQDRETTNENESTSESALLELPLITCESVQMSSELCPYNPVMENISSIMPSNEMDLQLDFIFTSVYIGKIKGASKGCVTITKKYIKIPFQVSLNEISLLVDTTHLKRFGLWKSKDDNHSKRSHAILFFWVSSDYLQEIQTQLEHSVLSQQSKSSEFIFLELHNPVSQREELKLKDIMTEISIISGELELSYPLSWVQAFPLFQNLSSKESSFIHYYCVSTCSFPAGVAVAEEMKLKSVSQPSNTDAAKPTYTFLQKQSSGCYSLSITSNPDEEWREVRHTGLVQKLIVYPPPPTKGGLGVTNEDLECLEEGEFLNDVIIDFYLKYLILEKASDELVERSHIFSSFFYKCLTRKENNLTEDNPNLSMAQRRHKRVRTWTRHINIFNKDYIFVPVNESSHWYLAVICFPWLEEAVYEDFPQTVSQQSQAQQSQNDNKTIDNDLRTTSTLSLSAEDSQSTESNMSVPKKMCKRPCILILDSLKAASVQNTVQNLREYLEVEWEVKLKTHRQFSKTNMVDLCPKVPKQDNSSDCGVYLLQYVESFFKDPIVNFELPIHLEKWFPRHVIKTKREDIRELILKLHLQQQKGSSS

[8] = NIH3T3 cell viability loss – ATP luminescence, mouse fibroblasts, counter-screen, dose response (AID 2010); format: functional, cell-based;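 further: cells exposed to compound for about 90 hours before reading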

Chain of Mu-type opioid receptor (P35372 whole entry): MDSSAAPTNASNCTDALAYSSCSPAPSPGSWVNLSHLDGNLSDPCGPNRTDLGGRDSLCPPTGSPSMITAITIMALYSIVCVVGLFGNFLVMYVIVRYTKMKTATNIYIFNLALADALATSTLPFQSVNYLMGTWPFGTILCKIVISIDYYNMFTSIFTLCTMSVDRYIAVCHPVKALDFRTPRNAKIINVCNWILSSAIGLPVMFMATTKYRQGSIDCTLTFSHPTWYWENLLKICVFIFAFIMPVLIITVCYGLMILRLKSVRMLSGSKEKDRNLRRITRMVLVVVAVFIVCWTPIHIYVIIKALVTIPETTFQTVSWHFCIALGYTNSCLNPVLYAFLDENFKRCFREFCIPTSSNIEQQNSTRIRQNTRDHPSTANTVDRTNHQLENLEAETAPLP
Chain of Nucleotide-binding oligomerization domain-containing protein 2 (Q9HC29 whole entry, the tested form may be a part): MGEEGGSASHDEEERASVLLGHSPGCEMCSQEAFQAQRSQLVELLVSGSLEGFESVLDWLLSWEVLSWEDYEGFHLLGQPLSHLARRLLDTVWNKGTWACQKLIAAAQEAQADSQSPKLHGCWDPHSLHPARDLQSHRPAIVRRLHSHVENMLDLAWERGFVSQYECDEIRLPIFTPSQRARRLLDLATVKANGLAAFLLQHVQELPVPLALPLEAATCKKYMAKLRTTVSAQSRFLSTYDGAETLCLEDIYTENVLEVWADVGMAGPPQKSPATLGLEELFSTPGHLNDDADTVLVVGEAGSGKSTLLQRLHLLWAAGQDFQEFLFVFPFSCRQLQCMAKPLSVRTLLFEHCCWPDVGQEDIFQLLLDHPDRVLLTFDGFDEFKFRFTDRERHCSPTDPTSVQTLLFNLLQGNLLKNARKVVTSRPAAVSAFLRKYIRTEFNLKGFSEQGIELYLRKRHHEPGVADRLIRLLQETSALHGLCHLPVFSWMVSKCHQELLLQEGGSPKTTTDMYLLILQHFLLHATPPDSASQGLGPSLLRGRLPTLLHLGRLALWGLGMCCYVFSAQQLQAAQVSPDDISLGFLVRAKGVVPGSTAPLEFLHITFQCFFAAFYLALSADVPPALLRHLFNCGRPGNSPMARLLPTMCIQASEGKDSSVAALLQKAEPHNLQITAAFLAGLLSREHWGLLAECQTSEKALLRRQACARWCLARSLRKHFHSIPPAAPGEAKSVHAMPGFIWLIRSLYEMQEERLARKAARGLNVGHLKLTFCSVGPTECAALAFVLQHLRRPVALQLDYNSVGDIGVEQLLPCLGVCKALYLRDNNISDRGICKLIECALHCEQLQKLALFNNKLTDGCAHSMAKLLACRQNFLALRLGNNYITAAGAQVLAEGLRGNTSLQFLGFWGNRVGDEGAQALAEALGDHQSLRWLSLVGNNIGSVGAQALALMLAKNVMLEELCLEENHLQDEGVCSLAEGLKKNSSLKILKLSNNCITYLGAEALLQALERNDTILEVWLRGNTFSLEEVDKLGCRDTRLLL

With `O=C1/C(=N\c2cccc(O)c2)C(N2CCCCC2)=C(O)c2ccccc21` the AC50 [1] was 8.12 µM (active).
In the case of `Cc1cc(/C=C2\SC(=S)N(C)C2=O)c(C)n1-c1ccc(O)cc1`, the EC50 [2] was 0.57 µM (active), the IC50 [3] was 8.79 µM (active) and the IC50 (HEK293 [4]) was 6.54 µM (inactive). The IC50 (HEK293 [5]) was > 20 µM (inactive), the EC50 [6] was 3.41 µM (active) and the EC50 (Mu-type opioid receptor) was > 92.5 µM (inactive).
For `COC(=O)c1cccc(-c2ccc(C(c3c(C)n[nH]c3O)c3c(C)n[nH]c3O)o2)c1`, the AC50 [1] was > 20 µM (inactive).
In the case of `Cc1ccc(C(=O)NNc2cc(N3CCCC3)nc(N3CCCC3)n2)cc1`, the IC50 [7] was 7.68 µM (active), the IC50 [3] was 4.6 µM (active) and the EC50 [8] was > 30 µM (not active).
